Test results reported in US10683278B2 (JINAN UNIVERSITY, priority 2015, dated 2020).
Read-outs that look alike come from different tables or passages of the source. Blank lines part the entries; values can stand above or below the molecule they belong to.

Experiments:
[1] = system: Molm-13 cells; test: Inhibition of proliferation of Molm-13 cells (CCK-8); format: cell-based; conditions: Homo sapiens, 72 h, mean±standard deviation of two independent tests
Protocol: [Worded in the source for another cell line; this cell line is reported under the same test.] (§1) 12000 g of compounds were centrifuged for 5 min, DMSO was added to make a 10^−2M stock solution, vortexed uniformly and sonicated for 10 min for standby application, and stored at −40° C. The compounds were diluted from the stock solution with saline to 10 times the concentration to be tested (concentration of DMSO in the system being no more than 0.5%) during the test.
(§2) The inhibitory effect of the compounds on the proliferation of MV4-11 cells was detected using a CCK-8 cell counting kit (Dojindo). The specific steps are as follows: the MV4-11 cells in logarithmic growth phase were seeded into a 96-well culture plate at a suitable density in 90 μL/well, cultured overnight, compounds at different concentrations were then added and acted on cells for 72 hr, and the solvent control group (negative control) was set up. The effect of the compounds on cell proliferation was detected using a CCK-8 cell counting kit (Dojindo) after the compounds had acted on the cells for 72 h. 10 μL of CCK-8 reagent was added to each well, same was placed in an incubator at 37° C. for 2-4 hours, and the reading from the full-wavelength microwell plate ELIASA SpectraMax 190 was performed with a wavelength of 450 nm.
(§3) IC50 value was calculated using a software included with ELIASA by the four-parameter regression.
(§4) IC50 for the inhibition of the compounds on each stain of cells was derived from two independent repeated tests, and the results are shown as the mean±standard deviation.

[2] = biological target: T1, AXL kinase (Homo sapiens, UniProt P30530); test: IC50 test on AXL kinase (Z′-LYTE FRET kinase activity detection); format: biochemical; conditions: for IC50: Z′-LYTE FRET peptide assay, 1 h reaction; for inhibitory activity on AXL kinase: competitive experiment with ATP, in words
T1 construct: purchased Invitrogen PV4803
T1 sequence (P30530 26-894): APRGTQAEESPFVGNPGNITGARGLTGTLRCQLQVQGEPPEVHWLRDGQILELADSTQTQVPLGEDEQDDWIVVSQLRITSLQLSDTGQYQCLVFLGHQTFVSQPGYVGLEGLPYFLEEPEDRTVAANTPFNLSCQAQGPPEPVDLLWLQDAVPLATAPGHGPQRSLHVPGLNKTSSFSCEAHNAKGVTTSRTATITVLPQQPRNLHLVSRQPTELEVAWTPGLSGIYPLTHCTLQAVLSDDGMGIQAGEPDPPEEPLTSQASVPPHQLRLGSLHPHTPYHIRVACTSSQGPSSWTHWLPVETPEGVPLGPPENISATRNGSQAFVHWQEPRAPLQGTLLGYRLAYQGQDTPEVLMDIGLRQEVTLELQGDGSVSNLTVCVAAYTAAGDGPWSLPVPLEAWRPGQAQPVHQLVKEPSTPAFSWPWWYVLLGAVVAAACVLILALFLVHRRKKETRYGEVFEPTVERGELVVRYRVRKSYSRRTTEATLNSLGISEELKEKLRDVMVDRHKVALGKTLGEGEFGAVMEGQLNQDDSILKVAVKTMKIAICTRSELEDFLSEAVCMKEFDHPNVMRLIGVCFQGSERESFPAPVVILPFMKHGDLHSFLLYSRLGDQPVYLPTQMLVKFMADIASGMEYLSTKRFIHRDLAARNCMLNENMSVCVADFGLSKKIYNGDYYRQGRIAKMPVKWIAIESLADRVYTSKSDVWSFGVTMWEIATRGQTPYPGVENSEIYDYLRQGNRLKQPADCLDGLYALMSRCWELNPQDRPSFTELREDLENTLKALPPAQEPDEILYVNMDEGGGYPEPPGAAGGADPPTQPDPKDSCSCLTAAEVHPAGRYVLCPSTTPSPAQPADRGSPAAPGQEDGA
How it was run: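 AXL kinase with Z′-LYTE Tyr 2 FRET peptide, ATP and graded compound concentrations reacted 1 h, then site-specific protease cleaved non-phosphorylated peptide for 1 h. Emission at 445 and 520 nm with 400 nm excitation gave the IC50.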

[3] = system: MV4-11 cells; test: Inhibition of proliferation of MV4-11 cells (CCK-8); format: cell-based; conditions: Homo sapiens, 72 h, mean±standard deviation of two independent tests
Protocol: as §1, §2, §3, §4

[4] = In vivo pharmacokinetic and bioavailability experiments of rats; design: species or system SD rats; conditions: Sprague-Dawley, rat, plasma; for Cmax: read-out: Cmax
Protocol: Pharmacokinetic and bioavailability experiments of rats. SD rats were administered orally (25 mg/kg) and intravenously (2.5 to 5 mg/kg) at a single dose. Animal blood samples were taken at appropriate time points after administration, heparin was added as anticoagulant, and same were centrifuged at 8000 rpm/min for 6 minutes, the supernatant was then taken and stored at −20° C. for HPLC-MS analysis. The proteins in blood samples were precipitated with acetonitrile at 12000 rpm for 10 min, and the supernatant was used for HPCL-MS analysis. Data were fit using DAS2.0 to obtain compartmental model and non-compartmental model parameters, respectively. The oral bioavailability of each compound was calculated according to AUC data.

[5] = biological target: T2, FLT-3 kinase domain recombinant protein (Homo sapiens, UniProt P36888); test: Inhibition rate on FLT3 kinase (ELISA); format: biochemical; conditions: two values per compound
T2 construct: 50 μL FLT-3 kinase domain recombinant protein diluted with reaction buffer to initiate the reaction
T2 sequence (P36888 610-943 limits assumed): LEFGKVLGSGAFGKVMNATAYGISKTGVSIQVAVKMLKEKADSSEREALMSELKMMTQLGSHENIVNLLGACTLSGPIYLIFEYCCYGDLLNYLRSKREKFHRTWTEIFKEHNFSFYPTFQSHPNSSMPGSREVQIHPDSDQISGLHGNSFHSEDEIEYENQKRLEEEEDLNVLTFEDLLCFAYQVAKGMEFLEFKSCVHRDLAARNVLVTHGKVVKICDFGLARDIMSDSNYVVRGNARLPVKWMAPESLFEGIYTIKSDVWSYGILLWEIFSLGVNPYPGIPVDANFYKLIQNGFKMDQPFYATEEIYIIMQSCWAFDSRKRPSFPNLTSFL
Protocol: Conventional enzyme-linked immunosorbent assay (ELISA) method is used, and the specific steps are as follows
as §1, with “12,000 g” for “12000 g”, “with DMSO” for “with saline”, “to 100” for “to 10”, “being 1%)” for “being no more than 0.5%)”
1. The enzyme reaction substrate Poly (Glu, Tyr) 4:1 was diluted to 20 μg/mL with potassium-free PBS (10 mM sodium phosphate buffer, 150 mM NaCl, pH 7.2-7.4), the ELISA plate was coated with same in 125 μL/well, and reacted at 37° C. for 12-16 hours, the liquid in wells was discarded, the plate was washed three times, for 5 minutes each time, with T-PBS (potassium-free PBS with 0.1% Tween-20, 200 μL/well), and the ELISA plate was dried in an oven at 37° C. for 1-2 hours.
2. To each well were added 49 μL of ATP solution diluted with reaction buffer (50 mM HEPES pH 7.4, 50 mM MgCl2, 0.5 mM MnCl2, 0.2 mM Na3VO4, 1 mM DTT), 1 μL of compounds to be tested, and 50 μL FLT-3 kinase domain recombinant protein diluted with reaction buffer to initiate the reaction (two ATP-free control wells are required for each experiment). Subject to a shaker (100 rpm) at 37° C. and reacted for 1 hour. The liquid in wells was discarded, and the plate was washed three times with T-PBS.
(§5) 3. Antibody PY99 diluent (the antibody was diluted in 1:500 with T-PBS which contains 5 mg/mL BSA) was added in 100 μL/well, subjected same to a shaker at 37° C. and reacted for 0.5 hour. The liquid in wells was discarded, and the plate was washed three times with T-PBS.
as §5, with “4. Horseradish peroxidase labeled goat anti-mouse secondary antibody” for “3. Antibody PY99”, “1:2000” for “1:500”, “mg/ml” for “mg/mL”
5. 2 mg/ml of OPD developing solution (diluted with 0.1 M citric acid-sodium citrate buffer which contains 0.03% H2O2 (pH=5.4)) was added in 100 μL/well, and reacted at 25° C. in the dark for 1-10 minutes.
6. 2 M H2SO4 was added in 50 μL/well to stop the reaction, and the reading from the wavelength-adjustable microwell plate ELIASA VERSAmax was performed with a wavelength of 490 nm.

[6] = SD rats, Po, 25 mg/kg single dose
[7] = SD rats, iv, 5 mg/kg single dose

IC50 [1]: 38.6 ± 18 nM
IC50 [2]: 0.005 µM
inhibitory activity on AXL kinase [2]: strong inhibitory activity
Structure (SMILES): CCc1ccc2c(c1)c(=O)c(C(=O)Nc1ccc(Oc3ncnc4cc(OCCCOC)c(OC)cc34)c(F)c1)c(C)n2C [TL4830073, 6-ethyl-N-(3-fluoro-4-((6-methoxy-7-(3-methoxypropoxy)quinazolin-4-yl)oxy)phenyl)-1,2-dimethyl-4-oxo-1,4-dihydroquinoline-3-carboxamide]

IC50 [1]: > 300 nM
IC50 [2]: 0.009 µM
inhibitory activity on AXL kinase [2]: strong inhibitory activity
IC50 [3]: > 500 nM
Structure (SMILES): CCc1ccc2c(c1)c(=O)c(C(=O)Nc1ccc(Oc3ncnc4cc(OC)c(OC)cc34)c(F)c1)c(CC)n2C [TL4830074, N-(4-(6,7-dimethoxyquinazolin-4-yloxy)-3-fluorophenyl)-2,6-diethyl-1-methyl-4-oxo-1,4-dihydroquinoline-3-carboxamide]

IC50 [1]: 19.5 ± 2.7 nM
IC50 [3]: < 2 nM
Structure (SMILES): CC(C)(C)c1cc(NC(=O)Nc2ccc(-c3cn4c(n3)sc3cc(OCCN5CCOCC5)ccc34)cc2)no1 [AC220, reference compound]

IC50 [2]: 0.058 µM
bioavailability ([4]; po, 25 mg/kg, read-out: F (oral bioavailability)): 7.92%
AUC(0-inf) [4, 6]: 12200 ng·h/mL
AUC(0-t) [4, 6]: 3800 ng·h/mL
half-life [4, 6]: 35.5 h
Cmax [4, 6]: 219 ng/mL
AUC(0-inf) [4, 7]: 13000 ng·h/mL
AUC(0-t) [4, 7]: 9600 ng·h/mL
clearance [4, 7]: 6.5 mL/min/kg
half-life [4, 7]: 12.7 h
Cmax [4, 7]: 1140 ng/mL
Inhibition rate (%) against receptor tyrosine kinase FLT-3 ([5]; compound 10 nM, 0.01 µM): 49.8%
inhibition at 0.01 µM ([5]; compound 10 nM, read-out: Inhibition rate (%) against receptor tyrosine kinase FLT-3): 44.7%
Inhibition rate (%) against receptor tyrosine kinase FLT-3 ([5]; compound 100 nM, 0.1 µM): 57.4%
inhibition at 0.1 µM ([5]; compound 100 nM, read-out: Inhibition rate (%) against receptor tyrosine kinase FLT-3): 66.4%
Inhibition rate (%) against receptor tyrosine kinase FLT-3 ([5]; compound 1000 nM, 1 µM): 80.9%
inhibition at 1 µM ([5]; compound 1000 nM, read-out: Inhibition rate (%) against receptor tyrosine kinase FLT-3): 87.6%
Structure (SMILES): COc1cc2ncnc(Oc3ccc(NC(=O)c4cn5c6c(c(N7CCN(C)CC7)c(F)cc6c4=O)OCN5C)cc3F)c2cc1OC [TL4830039, N-(4-((6,7-dimethoxyquinazolin-4-yl)oxy)-3-fluorophenyl)-9-fluoro-3-methyl-10-(4-methylpiperazin-1-yl)-7-oxo-2,3-dihydro-7H-[1,3,4] oxadiazino[6,5,4-ij]quinoline-6-carboxamide]
